{"source": "patent US11877574B2", "about": "“Herbicidal oil dispersion and method” (Arysta LifeScience Inc., priority 2018, dated 2024)", "key": {"[1]": {"experiment": "Active ingredient assay on storage, SCB239-12 (Table 3)", "type": "physicochemical"}, "[2]": {"experiment": "Active ingredient assay and recovery on storage (Table 2)", "type": "physicochemical"}}, "data": [{"smiles": "CCCCCCC(C)OC(=O)COc1nc(F)c(Cl)c(N)c1Cl", "note": "(stereo not shown) [Fluroxypyr, Fluroxypyr Meptyl]", "values": [{"measurement": "Assay (% w/w)", "setting": "[1]; 1 month storage, 0° C.", "value": 11.25, "unit": "% w/w"}, {"measurement": "Recovery of active ingredient (% of initial assay)", "setting": "[1]; 1 month storage, 0° C.", "value": 99.37, "unit": "% w/w"}, {"measurement": "Assay (% w/w)", "setting": "[1]; 1 month storage, 40° C.", "value": 11.24, "unit": "% w/w"}, {"measurement": "Recovery of active ingredient (% of initial assay)", "setting": "[1]; 1 month storage, 40° C.", "value": 99.33, "unit": "% w/w"}, {"measurement": "Assay (% w/w)", "setting": "[1]; 1 month storage, T/C", "value": 11.25, "unit": "% w/w"}, {"measurement": "Recovery of active ingredient (% of initial assay)", "setting": "[1]; 1 month storage, T/C", "value": 99.36, "unit": "% w/w"}, {"measurement": "Assay (% w/w)", "setting": "[1]; 2 month storage, 0° C.", "value": 11.19, "unit": "% w/w"}, {"measurement": "Recovery of active ingredient (% of initial assay)", "setting": "[1]; 2 month storage, 0° C.", "value": 98.83, "unit": "% w/w"}, {"measurement": "Assay (% w/w)", "setting": "[1]; 2 month storage, 40° C.", "value": 11.13, "unit": "% w/w"}, {"measurement": "Recovery of active ingredient (% of initial assay)", "setting": "[1]; 2 month storage, 40° C.", "value": 98.36, "unit": "% w/w"}, {"measurement": "Assay (% w/w)", "setting": "[1]; 2 month storage, T/C", "value": 11.17, "unit": "% w/w"}, {"measurement": "Recovery of active ingredient (% of initial assay)", "setting": "[1]; 2 month storage, T/C", "value": 98.68, "unit": "% w/w"}, {"measurement": "Assay (% w/w)", "setting": "[1]; 2 wks, 54° C.", "value": 11.26, "unit": "% w/w"}, {"measurement": "Recovery of active ingredient (% of initial assay)", "setting": "[1]; 2 wks, 54° C.", "value": 99.48, "unit": "% w/w"}, {"measurement": "Assay (% w/w)", "setting": "[1]; 3 month storage, 0° C.", "value": 11.23, "unit": "% w/w"}, {"measurement": "Recovery of active ingredient (% of initial assay)", "setting": "[1]; 3 month storage, 0° C.", "value": 99.21, "unit": "% w/w"}, {"measurement": "Assay (% w/w)", "setting": "[1]; 3 month storage, 25° C.", "value": 11.20, "unit": "% w/w"}, {"measurement": "Recovery of active ingredient (% of initial assay)", "setting": "[1]; 3 month storage, 25° C.", "value": 98.92, "unit": "% w/w"}, {"measurement": "Assay (% w/w)", "setting": "[1]; 3 month storage, 40° C.", "value": 11.21, "unit": "% w/w"}, {"measurement": "Recovery of active ingredient (% of initial assay)", "setting": "[1]; 3 month storage, 40° C.", "value": 99.04, "unit": "% w/w"}, {"measurement": "Assay (% w/w)", "setting": "[1]; 3 month storage, −10° C.", "value": 11.13, "unit": "% w/w"}, {"measurement": "Recovery of active ingredient (% of initial assay)", "setting": "[1]; 3 month storage, −10° C.", "value": 98.30, "unit": "% w/w"}, {"measurement": "Assay (% w/w)", "setting": "[1]; F/T sample", "value": 11.28, "unit": "% w/w"}, {"measurement": "Recovery of active ingredient (% of initial assay)", "setting": "[1]; F/T sample", "value": 99.68, "unit": "% w/w"}, {"measurement": "Assay (% w/w)", "setting": "[1]; Initial", "value": 11.32, "unit": "% w/w"}, {"measurement": "Assay (% w/w)", "setting": "[2]; 1 month storage, 0° C.", "value": 11.47, "unit": "% w/w"}, {"measurement": "Assay (% w/w)", "setting": "[2]; 1 month storage, 40° C.", "value": 11.50, "unit": "% w/w"}, {"measurement": "Assay (% w/w)", "setting": "[2]; 1 month storage, T/C", "value": 11.52, "unit": "% w/w"}, {"measurement": "Assay (% w/w)", "setting": "[2]; 1 month storage, −10° C.", "value": 11.49, "unit": "% w/w"}, {"measurement": "Assay (% w/w)", "setting": "[2]; 2 month storage, 0° C.", "value": 11.56, "unit": "% w/w"}, {"measurement": "Assay (% w/w)", "setting": "[2]; 2 month storage, 40° C.", "value": 11.56, "unit": "% w/w"}, {"measurement": "Assay (% w/w)", "setting": "[2]; 2 month storage, T/C", "value": 11.55, "unit": "% w/w"}, {"measurement": "Assay (% w/w)", "setting": "[2]; 2 month storage, −10° C.", "value": 11.55, "unit": "% w/w"}, {"measurement": "Assay (% w/w)", "setting": "[2]; 2 wks, 54° C.", "value": 11.63, "unit": "% w/w"}, {"measurement": "Assay (% w/w)", "setting": "[2]; 3 month storage, 0° C.", "value": 11.63, "unit": "% w/w"}, {"measurement": "Assay (% w/w)", "setting": "[2]; 3 month storage, 25° C.", "value": 11.68, "unit": "% w/w"}, {"measurement": "Assay (% w/w)", "setting": "[2]; 3 month storage, 40° C.", "value": 11.69, "unit": "% w/w"}, {"measurement": "Assay (% w/w)", "setting": "[2]; 3 month storage, T/C", "value": 11.71, "unit": "% w/w"}, {"measurement": "Assay (% w/w)", "setting": "[2]; 3 month storage, −10° C.", "value": 11.71, "unit": "% w/w"}, {"measurement": "Assay (% w/w)", "setting": "[2]; 6 month storage, 25° C.", "value": 11.36, "unit": "% w/w"}, {"measurement": "Assay (% w/w)", "setting": "[2]; 9 month storage, 25° C.", "value": 11.56, "unit": "% w/w"}, {"measurement": "Assay (% w/w)", "setting": "[2]; 12 month storage, 25° C.", "value": 11.63, "unit": "% w/w"}, {"measurement": "Assay (% w/w)", "setting": "[2]; F/T Sample", "value": 11.61, "unit": "% w/w"}, {"measurement": "Assay (% w/w)", "setting": "[2]; initial", "value": 11.60, "unit": "% w/w"}]}, {"smiles": "CCCCCC(C)OC(=O)COc1ccc(Cl)c2cccnc12", "note": "(stereo not shown) [cloquintocet, Cloquintocet Mexyl]", "values": [{"measurement": "Assay (% w/w)", "setting": "[1]; 1 month storage, 0° C.", "value": 0.35, "unit": "% w/w"}, {"measurement": "Recovery of active ingredient (% of initial assay)", "setting": "[1]; 1 month storage, 0° C.", "value": 100.15, "unit": "% w/w"}, {"measurement": "Assay (% w/w)", "setting": "[1]; 1 month storage, 40° C.", "value": 0.35, "unit": "% w/w"}, {"measurement": "Recovery of active ingredient (% of initial assay)", "setting": "[1]; 1 month storage, 40° C.", "value": 99.58, "unit": "% w/w"}, {"measurement": "Assay (% w/w)", "setting": "[1]; 1 month storage, T/C", "value": 0.35, "unit": "% w/w"}, {"measurement": "Recovery of active ingredient (% of initial assay)", "setting": "[1]; 1 month storage, T/C", "value": 99.83, "unit": "% w/w"}, {"measurement": "Assay (% w/w)", "setting": "[1]; 2 month storage, 0° C.", "value": 0.36, "unit": "% w/w"}, {"measurement": "Recovery of active ingredient (% of initial assay)", "setting": "[1]; 2 month storage, 0° C.", "value": 100.12, "unit": "% w/w"}, {"measurement": "Assay (% w/w)", "setting": "[1]; 2 month storage, 40° C.", "value": 0.35, "unit": "% w/w"}, {"measurement": "Recovery of active ingredient (% of initial assay)", "setting": "[1]; 2 month storage, 40° C.", "value": 100.02, "unit": "% w/w"}, {"measurement": "Assay (% w/w)", "setting": "[1]; 2 month storage, T/C", "value": 0.36, "unit": "% w/w"}, {"measurement": "Recovery of active ingredient (% of initial assay)", "setting": "[1]; 2 month storage, T/C", "value": 101.08, "unit": "% w/w"}, {"measurement": "Assay (% w/w)", "setting": "[1]; 2 wks, 54° C.", "value": 0.35, "unit": "% w/w"}, {"measurement": "Recovery of active ingredient (% of initial assay)", "setting": "[1]; 2 wks, 54° C.", "value": 100.70, "unit": "% w/w"}, {"measurement": "Assay (% w/w)", "setting": "[1]; 3 month storage, 0° C.", "value": 0.35, "unit": "% w/w"}, {"measurement": "Recovery of active ingredient (% of initial assay)", "setting": "[1]; 3 month storage, 0° C.", "value": 100.75, "unit": "% w/w"}, {"measurement": "Assay (% w/w)", "setting": "[1]; 3 month storage, 25° C.", "value": 0.35, "unit": "% w/w"}, {"measurement": "Recovery of active ingredient (% of initial assay)", "setting": "[1]; 3 month storage, 25° C.", "value": 100.17, "unit": "% w/w"}, {"measurement": "Assay (% w/w)", "setting": "[1]; 3 month storage, 40° C.", "value": 0.35, "unit": "% w/w"}, {"measurement": "Recovery of active ingredient (% of initial assay)", "setting": "[1]; 3 month storage, 40° C.", "value": 99.39, "unit": "% w/w"}, {"measurement": "Assay (% w/w)", "setting": "[1]; 3 month storage, −10° C.", "value": 0.35, "unit": "% w/w"}, {"measurement": "Recovery of active ingredient (% of initial assay)", "setting": "[1]; 3 month storage, −10° C.", "value": 99.59, "unit": "% w/w"}, {"measurement": "Assay (% w/w)", "setting": "[1]; F/T sample", "value": 0.36, "unit": "% w/w"}, {"measurement": "Recovery of active ingredient (% of initial assay)", "setting": "[1]; F/T sample", "value": 101.49, "unit": "% w/w"}, {"measurement": "Assay (% w/w)", "setting": "[1]; Initial", "value": 0.35, "unit": "% w/w"}, {"measurement": "Assay (% w/w)", "setting": "[2]; 1 month storage, 0° C.", "value": 0.41, "unit": "% w/w"}, {"measurement": "Assay (% w/w)", "setting": "[2]; 1 month storage, 40° C.", "value": 0.41, "unit": "% w/w"}, {"measurement": "Assay (% w/w)", "setting": "[2]; 1 month storage, T/C", "value": 0.41, "unit": "% w/w"}, {"measurement": "Assay (% w/w)", "setting": "[2]; 1 month storage, −10° C.", "value": 0.41, "unit": "% w/w"}, {"measurement": "Assay (% w/w)", "setting": "[2]; 2 month storage, 0° C.", "value": 0.41, "unit": "% w/w"}, {"measurement": "Assay (% w/w)", "setting": "[2]; 2 month storage, 40° C.", "value": 0.40, "unit": "% w/w"}, {"measurement": "Assay (% w/w)", "setting": "[2]; 2 month storage, T/C", "value": 0.40, "unit": "% w/w"}, {"measurement": "Assay (% w/w)", "setting": "[2]; 2 month storage, −10° C.", "value": 0.41, "unit": "% w/w"}, {"measurement": "Assay (% w/w)", "setting": "[2]; 2 wks, 54° C.", "value": 0.39, "unit": "% w/w"}, {"measurement": "Assay (% w/w)", "setting": "[2]; 3 month storage, 0° C.", "value": 0.41, "unit": "% w/w"}, {"measurement": "Assay (% w/w)", "setting": "[2]; 3 month storage, 25° C.", "value": 0.41, "unit": "% w/w"}, {"measurement": "Assay (% w/w)", "setting": "[2]; 3 month storage, 40° C.", "value": 0.40, "unit": "% w/w"}, {"measurement": "Assay (% w/w)", "setting": "[2]; 3 month storage, T/C", "value": 0.41, "unit": "% w/w"}, {"measurement": "Assay (% w/w)", "setting": "[2]; 3 month storage, −10° C.", "value": 0.42, "unit": "% w/w"}, {"measurement": "Assay (% w/w)", "setting": "[2]; 6 month storage, 25° C.", "value": 0.39, "unit": "% w/w"}, {"measurement": "Assay (% w/w)", "setting": "[2]; 9 month storage, 25° C.", "value": 0.39, "unit": "% w/w"}, {"measurement": "Assay (% w/w)", "setting": "[2]; 12 month storage, 25° C.", "value": 0.39, "unit": "% w/w"}, {"measurement": "Assay (% w/w)", "setting": "[2]; F/T Sample", "value": 0.41, "unit": "% w/w"}, {"measurement": "Assay (% w/w)", "setting": "[2]; initial", "value": 0.41, "unit": "% w/w"}]}]}
